Results from US11091529B2, “Peptides having reduced toxicity that stimulate cholesterol efflux” (The Regents of the University of California, priority 2014, dated 2021).
Where no end group is shown, it is not given here.

System: male, chow-fed C57Bl/6 mice
Assay: Safety and TG elevating effects after IP injection of peptides (plasma CPK, ALT, AST, TG)
Conditions: 300 mg/kg IP; for muscle toxicity as judged by CPK activity in plasma: compared with ATI-5261
From the text: Since the position of positively charged amino acids near the lipid-water interface of class A α-helices is thought to mediate membrane interactions, we tested whether inverting the positions of positive and negative residues within ATI-5261 lessened the toxic response of the peptide at high doses. Panel A—Helical-wheel and net diagrams of ATI-5261 showing the positions of positively charged lysine (K) and arginine (R) at the lipid interface of the amphipathic α-helix (i.e. helical wheel diagrams on left). […] Plasma CPK, ALT, AST and TG (table) were assessed after 4 h. Values and means±SD, n=4.
Panel A—The positions of charged amino acids within the LeuATI-5261 peptide were switched to move the positive lysine and arginine residues away from the lipid-water interface of the amphipathic α-helix. Panel B— Safety and TG elevating effects were evaluated by injecting (IP) peptides (300 mg/kg) into male, chow-fed C57Bl/6 mice. Values are means SD, n=4. […] J774 macrophages were labeled with [3H]cholesterol and treated with (red, right side bars) and without (blue, left side bars) cAMP to modulate ABCA1 expression.
Panel A—Safety and TG elevating effects were evaluated by injecting (IP) peptides (300 mg/kg) into male, chow-fed C57Bl/6 mice. Values are means SD, n=4. […] Panel B-ABCA1-dependent cholesterol efflux activity of peptides determined using J774 macrophages labeled with [3H]cholesterol. Results are expressed as the ABCA1 component of efflux.
Peptides or peptidomeimetics of the invention can be evaluated for toxicity using known assays. […] Safety chemistry panels including plasma alanine aminotransferase (ALT), aspartate amino transferase (AST), and creatine kinase (CK) can then be determined in the blood. […]
Since the position of positively charged amino acids near the lipid-water interface of class A α-helices is thought to mediate membrane interactions, we tested whether inverting the positions of positive and negative residues within ATI-5261 lessened the toxic response of the peptide at high doses. […] Plasma CPK, ALT, AST and TG (table) were assessed after 4 h as described in FIGS. 4-6. […]

| Sequence | muscle toxicity as judged by CPK activity in plasma | cytotoxicity (plasma CPK, ALT, AST) (plasma after 4 h, n=4) |
| --- | --- | --- |
| EVRSKLEEWFAAFREFAEEFLARLNS [T5594-4] | greatly reduced muscle toxicity | – |
| KVESELREWLAALEKLARRLLAELES [T6023-2] | – | no increase in muscle toxicity or elevated plasma enzymes compared to vehicle alone |
| EVRSKLEEWFAAFREFAEEFLARL [T5766-5] | greatly reduced muscle toxicity | – |
